From patent publication US6489351B1, “Condensed 4,5,6,7-tetrahydrobenzo[C]thiophenes as enhancer for cell differentation induction factor action” (Takeda Chemical Industries, Ltd., priority 1996, dated 2002) come the findings set out here.

Series [1] relates to Mouse-derived osteoblast strain MC3T3-E1. Briefly: Alkaline phosphatase production induction capability in mouse osteoblast strain. In kind it is cell-based. As to conditions: compound 10^−5 M, 72 hours, mean±S.E.; for Alkaline Phosphate Activity (A405 × 1,000), BMP Added (3 ng/ml): 3 ng/ml BMP-4/7 heterodimer, control 397 ± 30 (Experiment 4), 420 ± 1 (Experiment 5); for Alkaline Phosphate Activity (A405 × 1,000), BMP Not Added: no BMP, control 135 ± 2 (Experiment 4), 141 ± 8 (Experiment 5). The procedure: Mouse-derived osteoblast strain MC3T3-E1 in α-MEM containing 10% fetal calf serum (FCS) was seeded to 96-well plates (8,000 cells/well); two days later, the sample, previously diluted with a medium containing or not containing 3 ng/ml BMP-4/7 of heterodimer (described in EP-A-0626451) to each concentration shown in Table 2, was added to the cells reaching a confluent state, followed by cultivation for 72 hours. After each plate was once washed with saline, substrate solution was added, followed by incubation at room temperature for 15 minutes. The reaction was stopped by 0.05 N sodium hydroxide, and the absorbance at 405 nm was determined. The values obtained are given in mean±S.E. in Table 2. The data were statistically analyzed by Student's t-test.

For series [2], the system named is stromal cells prepared from the femoral marrow of a normal rat. Briefly: Osteogenesis-promoting action: alkaline phosphatase activity in rat femoral marrow stromal cells. As to conditions: mean±SE. In kind it is cell-based. On the procedure: Using stromal cells prepared from the femoral marrow of a normal rat, alkaline phosphatase activity was determined as an index of osteogenesis. Specifically, stromal cells, prepared from the femoral marrow of a 7-week-old male Sprague-Dawley rat by the method of Maniatopoulos et al. [Cell Tissue Research, Vol. 254, p. 317 (1988)], were cultured in an α-MEM (minimum essential medium) solution containing both dexamethasone (10^−7 M) and β-glycerophosphoric acid (10^−2 M) to obtain calcified osteoid tissue. […] After washing with phosphate buffer, the cells were homogenized with 0.2% Nonidet P-40 and centrifuged at 3,000 rpm for 10 minutes. The resulting supernatant was assayed for alkaline phosphatase activity by the method of Lowry et al. [Journal of Biological Chemistry, Vol. 207, p. 19 (1954)]. The values obtained are given in mean±SE in Table 1. The data-were statistically analyzed by Student's t-test.

The mark [3] stands for this setting: compound 10^−5 M, control 694.9 ± 22.7 (Experiment 1), 608.4 ± 20.9 (Experiment 2).
Where [4] appears, read: compound 10^−6 M, Experiment 3, control 63.1 ± 5.0.

Structures are written as SMILES.

`CCOP(=O)(Cc1ccc(NC(=O)c2cc3c(s2)-c2c(SC)sc(C(=O)Nc4ccc(CP(=O)(OCC)OCC)cc4)c2CC3)cc1)OCC` came in with a melting point of 262 to 263 °C.
The same measure, in the same setting: the same measure for `CCOC(=O)c1sc(SC)c2c1CCc1sc(C)nc1-2` [Example 1, ethyl 4,5-dihydro-2-methyl-8-methylthiothieno[3,4-e]benzothiazole-6-carboxylate]: 143 to 144 °C; for `CCOC(=O)c1sc(SC)c2c1CCc1sc(-c3ccccc3)nc1-2` [Example 2, ethyl 4,5-dihydro-8-methylthio-2-phenylthieno[3,4-e]benzothiazole-6-carboxylate]: 153 to 154 °C; for `CCCSc1sc(C(=O)OCC)c2c1-c1nc(-c3ccccc3)sc1CC2` [Example 3, ethyl 4,5-dihydro-2-phenyl-8-propylthiothieno[3,4-e]benzothiazole-6-carboxylate]: 125 to 126 °C.
Compound `CCOC(=O)c1oc(SC)c2c1CCc1sc(-c3ccccc3)nc1-2` [Example 4, ethyl 4,5-dihydro-8-methylthio-2-phenylfuro[3,4-e]benzothiazole-6-carboxylate] showed a melting point of 170 to 171 °C.
Still for that read-out and setting: the same measure for `CCOC(=O)c1sc(SC)c2c1CCC(NC(C)=O)C2=O` (stereo not shown) [Example 11, ethyl 5-acetylamino-4,5,6,7-tetrahydro-3-methylthio-4-oxobenzo[c]thiophene-1-carboxylate]: 215 to 216 °C.
On the same count and under the same terms, the figure for `CCOC(=O)c1sc(SC(C)C)c2c1CCC(NC(C)=O)C2=O` (stereo not shown) [Example 12, ethyl 5-acetylamino-4,5,6,7-tetrahydro-3-isopropylthio-4-oxobenzo[c]thiophene-1-carboxylate] is 170 to 171 °C.
On to `CCCSc1sc(C(=O)OCC)c2c1C(=O)C(NC(=O)CC)CC2` (stereo not shown) [Example 13, ethyl 4,5,6,7-tetrahydro-4-oxo-5-propionylamino-3-propylthiobenzo[c]thiophene-1-carboxylate], for which the melting point was in the range of 191 to 192 °C.
As for `CCOC(=O)c1sc(SC)c2c1CCc1nc(C)oc1-2` [Example 17, ethyl 4,5-dihydro-2-methyl-8-methylthiothieno[3,4-g]benzoxazole-6-carboxylate], the melting point is 131 to 132 °C.
On the same count and under the same terms, the figure for `CCOC(=O)c1sc(SC(C)C)c2c1CCc1nc(C)oc1-2` [Example 18, ethyl 4,5-dihydro-8-isopropylthio-2-methylthieno[3,4-g]benzoxazole-6-carboxylate] is 62 to 63 °C; for `CCOC(=O)c1sc(SC)c2c1CCc1nc(-c3ccccc3)[nH]c1-2` [Example 21, ethyl 4,5-dihydro-8-methylthio-2-phenylthieno[3,4-e]benzimidazole-6-carboxylate] it is 218 to 219 °C; for `CSc1sc(C(=O)O)c2c1-c1nc(C)sc1CC2` [Example 22, 4,5-dihydro-2-methyl-8-methylthiothieno[3,4-e]benzothiazole-6-carboxylic acid] it is 273 to 274 °C.
Same read-out and setting: the figure for `CSc1sc(C(=O)O)c2c1-c1nc(-c3ccccc3)sc1CC2` [Example 23, 4,5-dihydro-8-methylthio-2-phenylthieno[3,4-e]benzothiazole-6-carboxylic acid] is 255 to 256 °C (dec.); for `CCCSc1sc(C(=O)O)c2c1-c1nc(-c3ccccc3)sc1CC2` [Example 24, 4,5-dihydro-2-phenyl-8-propylthiothieno[3,4-e]benzothiazole-6-carboxylic acid] it is 236 to 237 °C (dec.).
Compound `Cc1nc2c(o1)-c1c(SC(C)C)sc(C(=O)O)c1CC2` [Example 33, 4,5-dihydro-8-isopropylthio-2-methylthieno[3,4-g]benzoxazole-6-carboxylic acid] returned a melting point of 277 to 278 °C.
`CSc1sc(C(N)=O)c2c1-c1nc(C)sc1CC2` [Example 36, 4,5-dihydro-2-methyl-8-methylthiothieno[3,4-e]benzothiazole-6-carboxamide]: the melting point fell in the range of 269 to 270 °C. Further, in series [1], the “Alkaline Phosphate Activity (A405 × 1,000), BMP Added (3 ng/ml)” value is recorded as 618 ± 13 A405 × 1,000 and the “Alkaline Phosphate Activity (A405 × 1,000), BMP Not Added” value is recorded as 181 ± 6 A405 × 1,000.
In turn, `CCCSc1sc(C(N)=O)c2c1-c1nc(-c3ccccc3)sc1CC2` [Example 37, 4,5-dihydro-2-phenyl-8-propylthiothieno[3,4-e]benzothiazole-6-carboxamide] displayed a melting point of 203 to 204 °C.
As to `CSc1sc(C(N)=O)c2c1-c1oc(C)nc1CC2` [Example 46], in series [2] (setting [3]), the “Alkaline Phosphatase Activity (nmol p-nitrophenol/min/well)” value is given as 1,916.8 ± 26.3 nmol p-nitrophenol/min/well.
For the compound `Cc1nc2c(o1)-c1c(SC(C)C)sc(C(N)=O)c1CC2` [Example 47, 4,5-dihydro-8-isopropylthio-2-methylthieno[3,4-g]benzoxazole-6-carboxamide], the melting point fell in the range of 230 to 231 °C. Besides, in series [1], the “Alkaline Phosphate Activity (A405 × 1,000), BMP Added (3 ng/ml)” value was 886 ± 35 A405 × 1,000 and the “Alkaline Phosphate Activity (A405 × 1,000), BMP Not Added” value is reported as 202 ± 21 A405 × 1,000.
With `CCNC(=O)c1sc(SC)c2c1CCc1sc(-c3ccccc3)nc1-2` [Example 50, N-ethyl-4,5-dihydro-8-methylthio-2-phenylthieno[3,4-e]benzothiazole-6-carboxamide], the melting point fell in the range of 211 to 212 °C. Moreover, the “Alkaline Phosphatase Activity (nmol p-nitrophenol/min/well)” value in series [2] (setting [3]) is on record as 1,463 ± 33.4 nmol p-nitrophenol/min/well.
The compound `CCNC(=O)c1sc(SC)c2c1CCc1nc(C)oc1-2` [Example 55] yielded a melting point of 175 to 176 °C.
Still for that read-out and setting: the figure for `CSc1sc(C(N)=O)c2c1-c1[nH]c(-c3ccccc3)nc1CC2` [Example 68, 4,5-dihydro-8-methylthio-2-phenylthieno[3,4-e]benzimidazole-6-carboxamide] is 206 to 207 °C; for `CCOC(=O)c1sc(SC)c2c1CCC(C=O)=C2Cl` [Example 69, ethyl 4-chloro-5-formyl-6,7-dihydro-3-methylthiobenzo[c]thiophene-1-carboxylate] it is 79 to 80 °C.
The same measure, in the same setting: the figure for `CCOC(=O)CSC1=C(C=O)CCc2c(C(=O)OCC)sc(SC)c21` [Example 70, ethyl 4-ethoxycarbonylmethylthio-5-formyl-6,7-dihydro-3-methylthiobenzo[c]thiophene-1-carboxylate] is 102 to 103 °C; for `CCOC(=O)c1cc2c(s1)-c1c(SC)sc(C(=O)OCC)c1CC2` [Example 71, diethyl 4,5-dihydro-8-methylthiobenzo[2,1-c:3,4-b′]dithiophene-2,6-dicarboxylate] it is 107 to 108 °C; for `CSc1sc(C(=O)O)c2c1-c1sc(-c3ccccc3)cc1CC2` [Example 75, 4,5-dihydro-8-methylthio-2-phenylbenzo[2,1-c:3,4-b′]dithiophene-6-carboxylic acid] it is 215 to 217 °C.
On the same count and under the same terms, the figure for `CSc1sc(C(N)=O)c2c1-c1sc(-c3ccccc3)cc1CC2` [Example 76, 4,5-dihydro-8-methylthio-2-phenylbenzo[2,1-c:3,4-b′]dithiophene-6-carboxamide] is 192 to 193 °C.
As to `CSc1sc(C(=O)NCc2ccc3c(c2)OCO3)c2c1-c1nc(-c3ccccc3)sc1CC2` [Example 90, N-(3,4-methylenedioxybenzyl)-4,5-dihydro-8-methylthio-2-phenylthieno[3,4-e]benzothiazole-6-carboxamide], the melting point lay in the range of 236 to 237 °C. Moreover, in series [2] (setting [4]), the “Alkaline Phosphatase Activity (nmol p-nitrophenol/min/well)” value is reported as 102.9 ± 7.3 nmol p-nitrophenol/min/well.
For `CSc1sc(C(=O)NCc2ccncc2)c2c1-c1nc(-c3ccccc3)sc1CC2` [Example 91, N-(4-pyridylmethyl)-4,5-dihydro-8-methylthio-2-phenylthieno[3,4-e]benzothiazole-6-carboxamide], in that order: 189 to 190 °C and 123.2 ± 5.7 nmol p-nitrophenol/min/well.
For `CSc1sc(C(=O)Nc2cccnc2)c2c1-c1nc(-c3ccccc3)sc1CC2` [Example 92, N-(3-pyridyl)-4,5-dihydro-8-methylthio-2-phenylthieno[3,4-e]benzothiazole-6-carboxamide], in that order: 230 to 231 °C and 111.4 ± 2.1 nmol p-nitrophenol/min/well.
For `CON(C)C(=O)c1sc(SC)c2c1CCc1sc(-c3ccccc3)nc1-2` [Example 93, N-methoxy-N-methyl-4,5-dihydro-8-methylthio-2-phenylthieno[3,4-e]benzothiazole-6-carboxamide], in that order: 157 to 158 °C and 159.9 ± 17.5 nmol p-nitrophenol/min/well.
